The experiment concerns progranulin (PGRN). Kind of experiment: progranulin induction cellular assay (PGRN assay), ELISA-based readout. As to conditions: PGRN assay as described: mouse primary microglia, primary cortical neurons and BV-2 cell lines; secreted mouse PGRN in medium by ELISA; cell type for Table B not specified. On the technique in general: ELISA stands for enzyme-linked immunosorbent assay.

Structures are written as SMILES. Structures can show the parent of a compound that is named as a salt.

Take `NC12CC(CC(=O)N3CCc4ccccc4C3c3ccc(F)cc3)(C1)C2` [Compound 4056, (S)-2-(3-aminobicyclo[1.1.1]pentan-1-yl)-1-(1-(4-fluorophenyl)-3,4-dihydroisoquinolin-2(1H)-yl)ethan-1-one]: the EC50 came to 1440 nM.
For `CNC12CC(CC(=O)N3CCc4ccccc4C3c3ccc(F)cc3)(C1)C2` [Compound 4057, (S)-1-(1-(4-fluorophenyl)-3,4-dihydroisoquinolin-2(1H)-yl)-2-(3-(methylamino)bicyclo[1.1.1]pentan-1-yl)ethan-1-one] the value was 1750 nM.
For `CNC12CC(CCC(=O)N3CCc4ccccc4C3c3ccc(F)cc3)(C1)C2` [Compound 4058, (S)-1-(1-(4-fluorophenyl)-3,4-dihydroisoquinolin-2(1H)-yl)-3-(3-(methylamino)bicyclo[1.1.1]pentan-1-yl)propan-1-one hydrochloride] the value was 900 nM; for `NC[C@H]1CC[C@@H]1OC(=O)N1CCc2ccccc2[C@@H]1c1ccc(F)cc1` [Compound 4064], 968 nM.
The molecule `NC[C@H]1CC[C@H]1OC(=O)N1CCc2ccccc2[C@@H]1c1ccc(F)cc1` [Compound 4065] returned a half-maximal effective concentration (EC50) of 821 nM.
The molecule `CN[C@H]1C[C@@H](NC(=O)N2CCc3ccccc3[C@@H]2c2ccc(F)cc2)C1` [Compound 4066] returned an EC50 of 610 nM.
For `CN[C@H]1C[C@@H](N(C)C(=O)N2CCc3ccccc3[C@@H]2c2ccc(F)cc2)C1` [Compound 4067] the value was 913 nM; for `CN(C)[C@H]1C[C@@H](NC(=O)N2CCc3ccccc3[C@@H]2c2ccc(F)cc2)C1` [Compound 4068], 290 nM; for `CN(C)[C@H]1C[C@@H](NC(=O)N2CCc3ccccc3[C@@H]2c2ccc(F)cc2)C1` [Compound 4069], 672 nM.
`N[C@H]1C[C@@H](CC(=O)N2CCc3ccccc3[C@@H]2c2ccc(F)cc2)C1` [Compound 4121] yielded an EC50 of 365 nM. This EC50 lies about 1.8-fold lower than the previous one.
In the case of `N[C@H]1C[C@H](CC(=O)N2CCc3ccccc3[C@@H]2c2ccc(F)cc2)C1` [Compound 4122] it was 208 nM.
In the case of `NC[C@@H]1CC[C@H]1OC(=O)N1CCc2ccccc2[C@@H]1c1ccc(F)cc1` [Compound 4123] it was greater than 2100 nM; in that of `NC[C@@H]1CC[C@@H]1OC(=O)N1CCc2ccccc2[C@@H]1c1ccc(F)cc1` [Compound 4124], 347 nM.
Consider `CN(C)[C@H]1C[C@H](CC(=O)N2CCc3ccccc3[C@@H]2c2ccc(F)cc2)C1` [Compound 4125], for which the EC50 is 280 nM. This EC50 and that of the molecule before are within 1.5-fold of each other.
For `CN(C)[C@H]1C[C@@H](CC(=O)N2CCc3ccccc3[C@@H]2c2ccc(F)cc2)C1` [Compound 4126] the value was 571 nM.
`CN(C)[C@H]1C[C@@H](OC(=O)N2CCc3ccccc3[C@@H]2c2ccc(F)cc2)C1` [Compound 4127] showed an EC50 of 773 nM.
For `CN(C)[C@H]1C[C@H](OC(=O)N2CCc3ccccc3[C@@H]2c2ccc(F)cc2)C1` [Compound 4128] the value was 319 nM; for `CCN[C@H]1C[C@@H](OC(=O)N2CCc3ccccc3[C@@H]2c2ccc(F)cc2)C1` [Compound 4129], 318 nM; for `CCN[C@H]1C[C@H](OC(=O)N2CCc3ccccc3[C@@H]2c2ccc(F)cc2)C1` [Compound 4130], 740 nM.
For `N[C@@H]1CC[C@@H]1CNC(=O)N1CCc2ccccc2[C@@H]1c1ccc(F)cc1` [Compound 4131] the value was 359 nM; for `N[C@@H]1CC[C@@H]1COC(=O)N1CCc2ccccc2[C@@H]1c1ccc(F)cc1` [Compound 4132, ((1S,2R)-2-aminocyclobutyl)methyl (S)-1-(4-fluorophenyl)-3,4-dihydroisoquinoline-2(1H)-carboxylate], 1010 nM.
As for `N[C@H]1CC[C@H]1COC(=O)N1CCc2ccccc2[C@@H]1c1ccc(F)cc1` [Compound 4133, ((1R,2S)-2-aminocyclobutyl)methyl (S)-1-(4-fluorophenyl)-3,4-dihydroisoquinoline-2(1H)-carboxylate], the EC50 is 864 nM.
In the case of `N[C@H]1CC[C@@H]1COC(=O)N1CCc2ccccc2[C@@H]1c1ccc(F)cc1` [Compound 4134, ((1S,2S)-2-aminocyclobutyl)methyl (S)-1-(4-fluorophenyl)-3,4-dihydroisoquinoline-2(1H)-carboxylate], the response was half-maximal at 1290 nM (EC50). This EC50 and that of the molecule before are within 1.5-fold of each other.
For `NC12CC(NC(=O)N3CCc4ccccc4[C@@H]3c3ccccc3)(C1)C2` [Compound 4135, (S)—N-(3-aminobicyclo[1.1.1]pentan-1-yl)-1-phenyl-3,4-dihydroisoquinoline-2(1H)-carboxamide] the value was 1610 nM; for `NC12CC(OC(=O)N3CCc4ccccc4[C@@H]3c3ccccc3)(C1)C2` [Compound 4136, 3-aminobicyclo[1.1.1]pentan-1-yl (S)-1-phenyl-3,4-dihydroisoquinoline-2(1H)-carboxylate], 604 nM; for `N[C@H]1CC[C@@H](C(=O)N2CCc3ccccc3[C@@H]2c2ccc(F)cc2)CC1` [Compound 4143, cis-(S)-(4-aminocyclohexyl)(1-(4-fluorophenyl)-3,4-dihydroisoquinolin-2(1H)-yl)methanone], 84 nM.
In the case of `N[C@H]1CC[C@H](C(=O)N2CCc3ccccc3[C@@H]2c2ccc(F)cc2)CC1` [Compound 4144] it was 3120 nM; in that of `O=C(O[C@H]1C[C@@H](NCCO)C1)N1CCc2ccccc2[C@@H]1c1ccc(F)cc1` [Compound 4145, cis-3-((2-hydroxyethyl)amino)cyclobutyl (S)-1-(4-fluorophenyl)-3,4-dihydroisoquinoline-2(1H)-carboxylate], 191 nM; in that of `O=C(O[C@H]1C[C@H](NCCO)C1)N1CCc2ccccc2[C@@H]1c1ccc(F)cc1` [Compound 4146, trans-3-((2-hydroxyethyl)amino)cyclobutyl (S)-1-(4-fluorophenyl)-3,4-dihydroisoquinoline-2(1H)-carboxylate], 89 nM.
For `N[C@H]1C[C@H](C(=O)N2CCc3ccccc3[C@@H]2c2ccc(F)cc2)C1` [Compound 4147, (trans-3-aminocyclobutyl)((S)-1-(4-fluorophenyl)-3,4-dihydroisoquinolin-2(1H)-yl)methanone] the value was 99 nM.
Molecule `N[C@H]1C[C@@H](C(=O)N2CCc3ccccc3[C@@H]2c2ccc(F)cc2)C1` [Compound 4148, (cis-3-aminocyclobutyl)((S)-1-(4-fluorophenyl)-3,4-dihydroisoquinolin-2(1H)-yl)methanone] came in with an EC50 of 92 nM. The EC50 values of the last two molecules are within 1.5-fold of each other.
For `NC[C@H]1C[C@H](C(=O)N2CCc3ccccc3[C@@H]2c2ccc(F)cc2)C1` [Compound 4149, (trans-3-(aminomethyl)cyclobutyl)((S)-1-(4-fluorophenyl)-3,4-dihydroisoquinolin-2(1H)-yl)methanone] the value was 245 nM.
For `NC[C@H]1C[C@@H](C(=O)N2CCc3ccccc3[C@@H]2c2ccc(F)cc2)C1` [Compound 4150, (cis-3-(aminomethyl)cyclobutyl)((S)-1-(4-fluorophenyl)-3,4-dihydroisoquinolin-2(1H)-yl)methanone] the value was 79 nM; for `N[C@]1(CO)C[C@H](C(=O)N2CCc3ccccc3[C@@H]2c2ccc(F)cc2)C1` [Compound 4151, (cis-3-amino-3-(hydroxymethyl)cyclobutyl)((S)-1-(4-fluorophenyl)-3,4-dihydroisoquinolin-2(1H)-yl)methanone], 83 nM.
In the case of `N[C@]1(CO)C[C@@H](C(=O)N2CCc3ccccc3[C@@H]2c2ccc(F)cc2)C1` [Compound 4152, (trans-3-amino-3-(hydroxymethyl)cyclobutyl)((S)-1-(4-fluorophenyl)-3,4-dihydroisoquinolin-2(1H)-yl)methanone] it was 245 nM; in that of `NC[C@]1(O)C[C@H](C(=O)N2CCc3ccccc3[C@@H]2c2ccc(F)cc2)C1` [Compound 4154, (trans-3-(aminomethyl)-3-hydroxycyclobutyl)((S)-1-(4-fluorophenyl)-3,4-dihydroisoquinolin-2(1H)-yl)methanone], 112 nM.
`N[C@H]1C[C@@H](OC(=O)N2CCc3ccccc3[C@@H]2c2ccc(F)cc2)C1` [Compound 4155, cis-3-aminocyclobutyl (S)-1-(4-fluorophenyl)-3,4-dihydroisoquinoline-2(1H)-carboxylate] yielded an EC50 of 131 nM.

Broadly, the EC50 is the concentration needed to bring the measured effect to its halfway point. High values mean a less potent agent, low ones a more potent agent.

For the origin of these results see patent US20230115534A1 (ARKUDA THERAPEUTICS, priority 2019, published 2023).
